What was measured:
[1] = Compatibility study of each API alone or 1:1 (w/w) with excipients under stressed conditions, impurities by HPLC; assay type: physicochemical; details: 60 ± 2 °C/80 ± 5% RH
Experimental: We evaluated the compatibility between APIs and excipients, for which each API in […]® tablets was individually mixed in a 1:1 (w/w) ratio with excipients used in the formulation, as well as with commonly used tablet excipients selected based on their functional roles (e.g., diluents, binders, disintegrants, lubricants, etc.). […] The compatibility study was conducted in a temperature and humidity chamber (Sunil Eyela Co., Seongnam, Korea). Samples were withdrawn at predetermined intervals and analyzed for impurities (%). A HPLC system (Agilent Technologies, Inc. CA, USA) was used for the quantitative analysis of impurities. The column used was Symmetry C8 (100 mm × 4.6 mm, 3.5 μm, Waters Corp., Milford, CT, USA). Mobile phase A consisted of a mixture of phosphate buffer (pH 2.8) and acetonitrile at a ratio of […] prepared in a 1000 mL volumetric flask. The buffer was prepared by adjusting a 10% phosphoric acid solution to pH 2.8, filtered through a 0.45 μm membrane filter (Millipore; Billerica, MA, USA), and degassed before use. Mobile phase B consisted of a phosphate buffer (pH 2.8) and acetonitrile at a ratio of 600:1400 (v/v), which was similarly prepared and degassed before use. The mobile phases were delivered at a flow rate of 1.0 mL/min, the column temperature was maintained at 35 °C, and detection was performed at a wavelength of 250 nm.

[2] = design: method as in PMID 21966165; details: low solubility and high permeability; cited from earlier work
[3] = hydrochlorothiazide compatibility, 1w
[4] = hydrochlorothiazide compatibility, 2w
[5] = hydrochlorothiazide compatibility, 4w
[6] = hydrochlorothiazide compatibility, Initial
[7] = olmesartan medoxomil compatibility, 1w
[8] = olmesartan medoxomil compatibility, 2w
[9] = olmesartan medoxomil compatibility, 4w
[10] = olmesartan medoxomil compatibility, Initial
[11] = S-amlodipine besylate compatibility, 1w
[12] = S-amlodipine besylate compatibility, 2w
[13] = S-amlodipine besylate compatibility, 4w

NS(=O)(=O)c1cc2c(cc1Cl)NCNS2(=O)=O [Hydrochlorothiazide]
<LOQ: Benzothiadiazine Related Compound A [1, 3] | Benzothiadiazine Related Compound A [1, 4] | Benzothiadiazine Related Compound A [1, 5] | Benzothiadiazine Related Compound A [1, 6]
0.08%: Total Impurity [1, 3] | Unknown Impurity [1, 3] | Total Impurity [1, 4] | Unknown Impurity [1, 4] | Total Impurity [1, 5] | Unknown Impurity [1, 5]
0.10%: Total Impurity [1, 6] | Unknown Impurity [1, 6]

CCCc1nc(C(C)(C)O)c(C(=O)OCc2oc(=O)oc2C)n1Cc1ccc(-c2ccccc2-c2nnn[nH]2)cc1 [Olmesartan medoxomil]
Class II: Biopharmaceutics Classification System (BCS) class [2]
<LOQ: RNH-8276 [1, 7] | Total Impurity [1, 7] | Unknown Impurity [1, 7] | RNH-8276 [1, 8] | Total Impurity [1, 8] | Unknown Impurity [1, 8] | RNH-8276 [1, 9] | Total Impurity [1, 10] | Unknown Impurity [1, 10]
0.05%: Total Impurity [1, 9] | Unknown Impurity [1, 9]

CCOC(=O)C1=C(COCCN)NC(C)=C(C(=O)OC)[C@@H]1c1ccccc1Cl.O.O.O=S(=O)(O)c1ccccc1 [S-amlodipine besylate, S-amlodipine besylate dihydrate]
0.30%: Total Impurity [1, 13]
0.16%: Unknown Impurity [1, 13]
<LOQ: Amlodipine Related Compound A [1, 11] | Total Impurity [1, 11] | Unknown Impurity [1, 11] | Amlodipine Related Compound A [1, 12] | Total Impurity [1, 12] | Unknown Impurity [1, 12]
0.06%: Amlodipine Related Compound A [1, 13]
